From EP3256120B1, “PSORALEN DERIVATIVES AS NON-PEPTIDIC INHIBITORS OF CHYMOTRYPSIN-LIKE ACTIVITY OF THE IMMUNOPROTEASOME” (Univerza v Ljubljani, priority 2015, dated 2016)

Tests used:
[1] = test system: other catalytic subunits (β1, β1i, β2, β2i); conditions: cited from earlier work
proteasomal β5 = proteasomal β5 (Homo sapiens, UniProt P28074); conditions: Singh A.V. et al. 2011; cited from earlier work
[2] = test system: normal peripheral blood mononuclear cells; conditions: exposure to high (up to 20 µM) concentrations; cited from earlier work
β5i = β5i (Homo sapiens, UniProt P28062); conditions: inhibition of the β5i; Singh A.V. et al. 2011; cited from earlier work
[3] = target: T1, β5i subunit of human immunoproteasome (Homo sapiens, UniProt P28062); test: Preliminary evaluation of inhibition of the β5i subunit (residual activity, Suc-LLVY-AMC fluorescence); assay type: biochemical; conditions: test compound 10 µM, 30 min preincubation at 37 °C, Suc-LLVY-AMC 25 µM, immunoproteasome 0.25 µg/mL
T1 construct: purchased Boston Biochem, Inc., Cambridge, MA, USA
Procedure: Appropriate stock solutions (mM concentration) of the test compounds were prepared in DMSO. Subsequent dilutions of the compounds, as well as the immunoproteasome and the substrate were prepared in buffered solution (50 mM Tris-HCI (pH 8.0), 0.5 mM EDTA, 0.01% SDS). To a 96-well black microtiter plate, human immunoproteasome (final concentration, 0.25 µg/mL) (Boston Biochem, Inc., Cambridge, MA, USA) was added, followed by either test compounds (10 µM final concentration) or buffered solution (with and without the DMSO), which accounted for the control group. Microtiter plate was covered with aluminum foil and incubated at 37 °C for 30 minutes with medium agitation. The reaction was initiated by the addition of β5- and β5i-selective substrate Suc-LLVY-AMC (25 µM final concentration). The reaction progress was recorded on the BioTek Synergy HT microplate reader by monitoring fluorescence at 460 nm (λex = 360 nm) every 5 minutes for 120 min at 37 °C. At least two independent experiments were performed. The initial linear ranges (between 20th and 60th minute) were used to calculate the slope of the line (k) by dividing the difference of fluorescence intensities (F) with the time difference (t) (Equation 1). The residual activities in percentages were calculated from the slopes obtained (Equation 2). The calculations were performed in Microsoft Office Excel 2007. k = ΔF/Δt [formula] • k slope of the line • F fluorescence intensity • t time (min) Residualactivityin% = kt /knt *100% [formula] • kt slope of the line for the treated enzyme • knt slope of the line for the non-treated enzyme

[4] = target: T1, β5i subunit of human immunoproteasome; test: Evaluation of irreversible inhibitors of the β5i subunit (IC50); assay type: biochemical; conditions: Suc-LLVY-AMC 25 µM, immunoproteasome 0.25 µg/mL, fluorescence increase between 20th and 60th minute
Procedure: The test compounds with time-dependent inhibitory activities were treated and evaluated as irreversible inhibitors. The assay was performed as described in the 44 section Preliminary evaluation of inhibition of the β5i subunit of human immunoproteasome. At least seven different concentrations of the test compounds ranging from 0.001 µM to 50 µM were used. The final concentrations of the substrate Suc-LLVY-AMC and the immunoproteasome were 25 µM and 0.25 µg/mL, respectively. At least two independent experiments were performed. The increases in fluorescence intensity between 20th and 60th minute and appropriate test compounds concentrations were analyzed with GraphPad Prism 5.01 to determine the IC50 values. Table 1. Inhibitory potencies of reversible psoralen-based inhibitors against the β5i subunit of the human immunoproteasome. The following compounds are not part of the invention.

[5] = test system: MHC-I receptors on the surface; conditions: Muchamuel T. et al. 2009; cited from earlier work
[6] = target: T1, β5i subunit of human immunoproteasome; test: Evaluation of reversible inhibitors of the β5i subunit (mode of inhibition and Ki, Dixon plots); assay type: biochemical; conditions: competitive inhibitors (footnote b), Suc-LLVY-AMC 12.5 µM to 125 µM, immunoproteasome 0.25 µg/mL
Procedure: The test compounds from the preliminary inhibitory assay with residual activities equal to or lower than 60% were characterized further by determining the mode of inhibition (competitive, non-competitive, uncompetitive, mixed inhibition). The assays were performed as described above. Five or more different concentrations of the test compounds ranging from 0.1 µM to 100 µM were used to determine the kinetic parameters at four different substrate concentrations (Suc-LLVY-AMC ranging from 12.5 µM to 125 µM). Final concentration of the immunoproteasome remained the same as before (0.25 µg/mL). The results obtained were analyzed as outlined above (see Equations 1 and 2), and two plots were derived using Microsoft Office Excel 2007:
- 1/v plotted against inhibitor concentration (Dixon plot; v- velocity, equal to the slope of the line k),
- [S]/v plotted against different concentrations of inhibitor ([S] equals substrate concentration).
The mode of inhibition was estimated from the relative positions of the lines obtained.

SMILES: CC1=C(C(=O)N[C@H](C)C(=O)N[C@@H](Cc2c[nH]c3ccccc23)C(=O)N[C@@H](Cc2ccccc2)C(=O)[C@@]2(C)CO2)Cc2ccccc21 [PR-924]
- inhibition of other catalytic subunits [1]: little or no inhibition
- selectivity for inhibition of the β5i over proteasomal β5 (proteasomal β5): > 100 fold
- toxicities in normal peripheral blood mononuclear cells [2]: no significant toxicities
- IC50 (β5i): 0.022 µM

SMILES: Cc1coc2cc3oc(=O)c(CC(=O)O)c(C)c3cc12 [n=1, 1R=Me]
- RA (%) [3]: 88%

SMILES: Cc1c(CC(=O)ON2C(=O)CCC2=O)c(=O)oc2cc3occ(-c4ccccc4)c3cc12
- IC50 [4]: 6.4 µM

SMILES: COc1ccc(C[C@H](NC(=O)[C@H](C)NC(=O)CN2CCOCC2)C(=O)N[C@@H](Cc2ccccc2)C(=O)[C@@]2(C)CO2)cc1 [PR-957]
- reduction of the expression of MHC-I receptors on the surface to [5]: 50%

SMILES: Cc1c(C(=O)O)c(=O)oc2cc3occ(-c4ccccc4)c3cc12
- RA (%) [3]: 82%

SMILES: Cc1c(CCC(=O)O)c(=O)oc2cc3occ(-c4ccc(Br)cc4)c3cc12
- Ki [6]: 137 µM

SMILES: Cc1c(CCC(=O)O)c(=O)oc2cc3occ(C4CCCCC4)c3cc12
- RA (%) [3]: 102%

SMILES: Cc1cc(-c2coc3cc4oc(=O)c(CCC(=O)O)c(C)c4cc23)c(C)s1
- Ki [6]: 52.3 µM

SMILES: Cc1c(CC(=O)O)c(=O)oc2cc3occ(-c4ccccc4)c3cc12
- Ki [6]: 2.4 µM

SMILES: Cc1c(CCC(=O)O)c(=O)oc2cc3occ(-c4ccccc4)c3cc12
- Ki [6]: 1.6 µM

SMILES: Cc1cc(-c2coc3cc4oc(=O)c(CCC(=O)O)c(C)c4cc23)c(C)o1
- RA (%) [3]: 100%

SMILES: O=C(O)Cc1cc2cc3c(-c4ccccc4)coc3cc2oc1=O
- Ki [6]: 3.8 µM

SMILES: Cc1c(CC(=O)O)c(=O)oc2cc3occ(-c4ccc(Br)cc4)c3cc12
- Ki [6]: 12.7 µM

SMILES: Cc1c(CC(=O)O)c(=O)oc2cc3occ(C4CCCCC4)c3cc12
- Ki [6]: 198 µM

SMILES: Cc1c(CN)c(=O)oc2cc3occ(-c4ccccc4)c3cc12
- Ki [6]: 39.6 µM

SMILES: COc1ccc(-c2coc3cc4oc(=O)c(CC(=O)O)c(C)c4cc23)cc1
- Ki [6]: 8.2 µM

SMILES: COc1ccc(-c2coc3cc4oc(=O)c(CCC(=O)O)c(C)c4cc23)cc1
- RA (%) [3]: 84%

SMILES: C=CC(=O)Nc1c(C)c2cc3c(-c4ccccc4)coc3cc2oc1=O
- IC50 [4]: 20.5 µM

SMILES: Cc1c(CC(=O)O)c(=O)oc2cc3occ(-c4ccco4)c3cc12
- Ki [6]: 89.3 µM

SMILES: Cc1coc2cc3oc(=O)c(CCC(=O)O)c(C)c3cc12 [n=2, 1R=Me]
- RA (%) [3]: 94%

SMILES: Cc1c(CC(=O)O)c(=O)oc2cc3occ(C(C)(C)C)c3cc12 [n=1, 1R=t-Bu]
- RA (%) [3]: 85%

SMILES: Cc1c(CCC(=O)O)c(=O)oc2cc3occ(-c4ccco4)c3cc12
- Ki [6]: 116 µM

SMILES: Cc1cc(-c2coc3cc4oc(=O)c(CC(=O)O)c(C)c4cc23)c(C)o1
- Ki [6]: 351 µM

SMILES: Cc1c(N)c(=O)oc2cc3occ(-c4ccccc4)c3cc12
- RA (%) [3]: 88%

SMILES: COc1cccc(-c2coc3cc4oc(=O)c(CCC(=O)O)c(C)c4cc23)c1
- Ki [6]: 29.6 µM

SMILES: Cc1c(CCC(=O)ON2C(=O)CCC2=O)c(=O)oc2cc3occ(-c4ccccc4)c3cc12
- IC50 [4]: 0.09 µM

SMILES: COc1cccc(-c2coc3cc4oc(=O)c(CC(=O)O)c(C)c4cc23)c1
- Ki [6]: 7 µM

SMILES: Cc1cc(-c2coc3cc4oc(=O)c(CC(=O)O)c(C)c4cc23)c(C)s1
- Ki [6]: 36.5 µM

SMILES: Cc1c(CCC(=O)O)c(=O)oc2cc3occ(C(C)(C)C)c3cc12 [n=2, 1R=t-Bu]
- RA (%) [3]: 83%
